From patent publication US7192906B2, “Substituted pyrazole derivatives, production process thereof, and herbicide compositions containing the derivatives” (SDS Biotech K.K., priority 2001, dated 2007)

Experiments:
Assay type in all cases: in vivo
[1] = test system: wheat (Triticum aestivum); assay: Test Example 1 upland field foliage treatment, crop phytotoxicity; conditions: Table 4, upland field foliage treatment, index 0-5
Description: (§1) A plastic pot of 130 cm^2 was filled with upland soil. Subsequently, weed seeds of Setaria viridis, Digitaria adscendens, Chenopodium album and Stellaria media, and crop seeds of soybean (Glycine max) and wheat (Triticum aestivum), were sowed and covered with soil of about 1 cm thickness. On the 14th day after the sowing, the wettable powder prepared in Formulation Example 1 was diluted with water such that the amount of the active ingredient became 1 kg per hectare, and then uniformly applied to the plant leaf surfaces. On the 21st day after the application, observation and evaluation were carried out according to the criteria described below.
(§2) Herbicidal activity was evaluated based on the following criteria.
(§3) • 5: herbicidal effect of not less than 90%, or phytotoxicity of 90% or more • 4: herbicidal effect of not less than 70% and less than 90%, or phytotoxicity of 70% or more and less than 90% • 3: herbicidal effect of not less than 50% and less than 70%, or phytotoxicity of 50% or more and less than 70% • 2: herbicidal effect of not less than 30% and less than 50%, or phytotoxicity of 30% or more and less than 50% • 1: herbicidal effect of not less than 10% and less than 30%, or phytotoxicity of 10% or more and less than 30% • 0: herbicidal effect of not less than 0% and less than 10%, or phytotoxicity of 0% or more and less than 10%

[2] = test system: soybean (Glycine max); assay: as above; conditions: Table 4, upland field foliage treatment, index 0-5
Description: as §1, §2, §3

[3] = test system: Chenopodium album; assay: Test Example 1 upland field foliage treatment; conditions: Table 4, upland field foliage treatment, index 0-5
Description: as §1, §2, §3

[4] = test system: Digitaria adscendens; assay: Test Example 1 upland field foliage treatment; conditions: Table 4, upland field foliage treatment, index 0-5
Description: as §1, §2, §3

[5] = test system: Setaria viridis; assay: Test Example 1 upland field foliage treatment; conditions: Table 4, upland field foliage treatment, index 0-5
Description: as §1, §2, §3

[6] = test system: Stellaria media; assay: Test Example 1 upland field foliage treatment; conditions: Table 4, upland field foliage treatment, index 0-5
Description: as §1, §2, §3

[7] = test system: Rice (Oryza sativa); assay: Test Example 3 paddy field treatment, crop phytotoxicity; conditions: paddy field treatment, transplanted rice Koshihikari, wettable powder, active ingredient 1 kg per hectare, 21st day after the dropping, index 0-5
Description: (§4) A plastic pot of 130 cm^2 was filled with paddy soil, and soil puddling was carried out to adjust the submerged depth to 4 cm. Subsequently, seeds of Echinochloa crusgalli, Monochoria vaginalis, Ammannia multiflora and Scirpus juncoides were sowed, and rice (Oryza sative, variety: Koshihikari) of two-leaf period was transplanted by 2 rice plants of 1 stub per pot at a depth of 3 cm. On the 10th day after the transplantation, the wettable powder prepared in Formulation Example 1 was diluted with water such that the amount of the active ingredient became 1 kg per hectare, and then dropped to diffuse on the water surface. On the 21st day after the dropping, observation and evaluation were carried out according to the aforesaid criteria.
as §2, §3

[8] = test system: Echinochloa crusgalli; assay: Test Example 3 paddy field treatment; conditions: paddy field treatment, wettable powder, active ingredient 1 kg per hectare, 21st day after the dropping, index 0-5
Description: as §4, §2, §3

[9] = test system: Ammannia multiflora; assay: Test Example 3 paddy field treatment; conditions: paddy field treatment, wettable powder, active ingredient 1 kg per hectare, 21st day after the dropping, index 0-5
Description: as §4, §2, §3

[10] = test system: Monochoria vaginalis; assay: Test Example 3 paddy field treatment; conditions: paddy field treatment, wettable powder, active ingredient 1 kg per hectare, 21st day after the dropping, index 0-5
Description: as §4, §2, §3

[11] = test system: Scirpus juncoides; assay: Test Example 3 paddy field treatment; conditions: paddy field treatment, wettable powder, active ingredient 1 kg per hectare, 21st day after the dropping, index 0-5
Description: as §4, §2, §3

[12] = test system: wheat (Triticum aestivum); assay: Test Example 2 upland soil treatment, crop phytotoxicity; conditions: Table 5, upland soil treatment, index 0-5
Description: as §1, with “next” for “14th”, “soil surface.” for “plant leaf surfaces.”, “aforesaid criteria.” for “criteria described below.”
as §2, §3

[13] = test system: soybean (Glycine max); assay: as above; conditions: Table 5, upland soil treatment, index 0-5
Description: as §1, with “next” for “14th”, “soil surface.” for “plant leaf surfaces.”, “aforesaid criteria.” for “criteria described below.”
as §2, §3

[14] = test system: Chenopodium album; assay: Test Example 2 upland soil treatment; conditions: Table 5, upland soil treatment, index 0-5
Description: as §1, with “next” for “14th”, “soil surface.” for “plant leaf surfaces.”, “aforesaid criteria.” for “criteria described below.”
as §2, §3

[15] = test system: Digitaria adscendens; assay: Test Example 2 upland soil treatment; conditions: Table 5, upland soil treatment, index 0-5
Description: as §1, with “next” for “14th”, “soil surface.” for “plant leaf surfaces.”, “aforesaid criteria.” for “criteria described below.”
as §2, §3

[16] = test system: Setaria viridis; assay: Test Example 2 upland soil treatment; conditions: Table 5, upland soil treatment, index 0-5
Description: as §1, with “next” for “14th”, “soil surface.” for “plant leaf surfaces.”, “aforesaid criteria.” for “criteria described below.”
as §2, §3

[17] = test system: Stellaria media; assay: Test Example 2 upland soil treatment; conditions: Table 5, upland soil treatment, index 0-5
Description: as §1, with “next” for “14th”, “soil surface.” for “plant leaf surfaces.”, “aforesaid criteria.” for “criteria described below.”
as §2, §3

## CNC(=O)C(Cn1cc(C)c(C2CCCCC2)n1)=NOC [Compound 11]
[1]
  Herbicidal activity (phytotoxicity) TA: Wheat (Triticum aestivum): 0 (herbicidal effect of not less than 0% and less than 10%, or phytotoxicity of 0% or more and less than 10%)
[2]
  Herbicidal activity (phytotoxicity) GM: Soybean (Glycine max): 0 (herbicidal effect of not less than 0% and less than 10%, or phytotoxicity of 0% or more and less than 10%)
[3]
  Herbicidal activity CA: Chenopodium album: 5 (herbicidal effect of not less than 90%, or phytotoxicity of 90% or more)
[4]
  Herbicidal activity DA: Digitaria adscendens: 5 (herbicidal effect of not less than 90%, or phytotoxicity of 90% or more)
[5]
  Herbicidal activity SV: Setaria viridis: 3 (herbicidal effect of not less than 50% and less than 70%, or phytotoxicity of 50% or more and less than 70%)
[6]
  Herbicidal activity SM: Stellaria media: 3 (herbicidal effect of not less than 50% and less than 70%, or phytotoxicity of 50% or more and less than 70%)
[7]
  Herbicidal activity OS (phytotoxicity to rice): 1 (herbicidal effect of not less than 10% and less than 30%, or phytotoxicity of 10% or more and less than 30%)
[8]
  Herbicidal activity EC: 5 (herbicidal effect of not less than 90%, or phytotoxicity of 90% or more)
[9]
  Herbicidal activity AM: 5 (herbicidal effect of not less than 90%, or phytotoxicity of 90% or more)
[10]
  Herbicidal activity MV: 5 (herbicidal effect of not less than 90%, or phytotoxicity of 90% or more)
[11]
  Herbicidal activity SJ: 5 (herbicidal effect of not less than 90%, or phytotoxicity of 90% or more)

## CNC(=O)C(Cn1ccc(-c2ccccc2)n1)=NOC [Compound 13]
[12]
  Herbicidal activity (phytotoxicity) TA: Wheat (Triticum aestivum): 0 (herbicidal effect of not less than 0% and less than 10%, or phytotoxicity of 0% or more and less than 10%)
[13]
  Herbicidal activity (phytotoxicity) GM: Soybean (Glycine max): 0 (herbicidal effect of not less than 0% and less than 10%, or phytotoxicity of 0% or more and less than 10%)
[1]
  Herbicidal activity (phytotoxicity) TA: Wheat (Triticum aestivum): 0 (herbicidal effect of not less than 0% and less than 10%, or phytotoxicity of 0% or more and less than 10%)
[2]
  Herbicidal activity (phytotoxicity) GM: Soybean (Glycine max): 0 (herbicidal effect of not less than 0% and less than 10%, or phytotoxicity of 0% or more and less than 10%)
[3]
  Herbicidal activity CA: Chenopodium album: 4 (herbicidal effect of not less than 70% and less than 90%, or phytotoxicity of 70% or more and less than 90%)
[4]
  Herbicidal activity DA: Digitaria adscendens: 4 (herbicidal effect of not less than 70% and less than 90%, or phytotoxicity of 70% or more and less than 90%)
[5]
  Herbicidal activity SV: Setaria viridis: 3 (herbicidal effect of not less than 50% and less than 70%, or phytotoxicity of 50% or more and less than 70%)
[6]
  Herbicidal activity SM: Stellaria media: 4 (herbicidal effect of not less than 70% and less than 90%, or phytotoxicity of 70% or more and less than 90%)
[14]
  Herbicidal activity CA: Chenopodium album: 5 (herbicidal effect of not less than 90%, or phytotoxicity of 90% or more)
[15]
  Herbicidal activity DA: Digitaria adscendens: 4 (herbicidal effect of not less than 70% and less than 90%, or phytotoxicity of 70% or more and less than 90%)
[16]
  Herbicidal activity SV: Setaria viridis: 4 (herbicidal effect of not less than 70% and less than 90%, or phytotoxicity of 70% or more and less than 90%)
[17]
  Herbicidal activity SM: Stellaria media: 5 (herbicidal effect of not less than 90%, or phytotoxicity of 90% or more)

## CCOC(CNC(=O)C(Cn1cc(C)c(-c2ccccc2)n1)=NOC)OCC [Compound 28]
[12]
  Herbicidal activity (phytotoxicity) TA: Wheat (Triticum aestivum): 0 (herbicidal effect of not less than 0% and less than 10%, or phytotoxicity of 0% or more and less than 10%)
[13]
  Herbicidal activity (phytotoxicity) GM: Soybean (Glycine max): 0 (herbicidal effect of not less than 0% and less than 10%, or phytotoxicity of 0% or more and less than 10%)
[1]
  Herbicidal activity (phytotoxicity) TA: Wheat (Triticum aestivum): 0 (herbicidal effect of not less than 0% and less than 10%, or phytotoxicity of 0% or more and less than 10%)
[2]
  Herbicidal activity (phytotoxicity) GM: Soybean (Glycine max): 0 (herbicidal effect of not less than 0% and less than 10%, or phytotoxicity of 0% or more and less than 10%)
[3]
  Herbicidal activity CA: Chenopodium album: 4 (herbicidal effect of not less than 70% and less than 90%, or phytotoxicity of 70% or more and less than 90%)
[4]
  Herbicidal activity DA: Digitaria adscendens: 3 (herbicidal effect of not less than 50% and less than 70%, or phytotoxicity of 50% or more and less than 70%)
[5]
  Herbicidal activity SV: Setaria viridis: 3 (herbicidal effect of not less than 50% and less than 70%, or phytotoxicity of 50% or more and less than 70%)
[6]
  Herbicidal activity SM: Stellaria media: 3 (herbicidal effect of not less than 50% and less than 70%, or phytotoxicity of 50% or more and less than 70%)
[14]
  Herbicidal activity CA: Chenopodium album: 4 (herbicidal effect of not less than 70% and less than 90%, or phytotoxicity of 70% or more and less than 90%)
[15]
  Herbicidal activity DA: Digitaria adscendens: 4 (herbicidal effect of not less than 70% and less than 90%, or phytotoxicity of 70% or more and less than 90%)
[16]
  Herbicidal activity SV: Setaria viridis: 3 (herbicidal effect of not less than 50% and less than 70%, or phytotoxicity of 50% or more and less than 70%)
[17]
  Herbicidal activity SM: Stellaria media: 3 (herbicidal effect of not less than 50% and less than 70%, or phytotoxicity of 50% or more and less than 70%)

## CNC(=O)C(Cn1cc(C)c(-c2ccccc2F)n1)=NOC [Compound 42]
[1]
  Herbicidal activity (phytotoxicity) TA: Wheat (Triticum aestivum): 0 (herbicidal effect of not less than 0% and less than 10%, or phytotoxicity of 0% or more and less than 10%)
[2]
  Herbicidal activity (phytotoxicity) GM: Soybean (Glycine max): 0 (herbicidal effect of not less than 0% and less than 10%, or phytotoxicity of 0% or more and less than 10%)
[3]
  Herbicidal activity CA: Chenopodium album: 5 (herbicidal effect of not less than 90%, or phytotoxicity of 90% or more)
[4]
  Herbicidal activity DA: Digitaria adscendens: 5 (herbicidal effect of not less than 90%, or phytotoxicity of 90% or more)
[5]
  Herbicidal activity SV: Setaria viridis: 5 (herbicidal effect of not less than 90%, or phytotoxicity of 90% or more)
[6]
  Herbicidal activity SM: Stellaria media: 5 (herbicidal effect of not less than 90%, or phytotoxicity of 90% or more)
[7]
  Herbicidal activity OS (phytotoxicity to rice): 0 (herbicidal effect of not less than 0% and less than 10%, or phytotoxicity of 0% or more and less than 10%)
[8]
  Herbicidal activity EC: 5 (herbicidal effect of not less than 90%, or phytotoxicity of 90% or more)
[9]
  Herbicidal activity AM: 5 (herbicidal effect of not less than 90%, or phytotoxicity of 90% or more)
[10]
  Herbicidal activity MV: 5 (herbicidal effect of not less than 90%, or phytotoxicity of 90% or more)
[11]
  Herbicidal activity SJ: 5 (herbicidal effect of not less than 90%, or phytotoxicity of 90% or more)

## CNC(=O)C(Cn1cc(C)c(-c2ccc(C#N)cc2)n1)=NOC [Compound 51]
[12]
  Herbicidal activity (phytotoxicity) TA: Wheat (Triticum aestivum): 0 (herbicidal effect of not less than 0% and less than 10%, or phytotoxicity of 0% or more and less than 10%)
[13]
  Herbicidal activity (phytotoxicity) GM: Soybean (Glycine max): 0 (herbicidal effect of not less than 0% and less than 10%, or phytotoxicity of 0% or more and less than 10%)
[14]
  Herbicidal activity CA: Chenopodium album: 4 (herbicidal effect of not less than 70% and less than 90%, or phytotoxicity of 70% or more and less than 90%)
[15]
  Herbicidal activity DA: Digitaria adscendens: 4 (herbicidal effect of not less than 70% and less than 90%, or phytotoxicity of 70% or more and less than 90%)
[16]
  Herbicidal activity SV: Setaria viridis: 4 (herbicidal effect of not less than 70% and less than 90%, or phytotoxicity of 70% or more and less than 90%)
[17]
  Herbicidal activity SM: Stellaria media: 4 (herbicidal effect of not less than 70% and less than 90%, or phytotoxicity of 70% or more and less than 90%)
